Legend:
Rattus norvegicus [1] = assay: Antihypertensive activity in conscious spontaneously hypertensive rat (SHR), percent change in heart rate (beats/min) after 8 hr at 0.3 mg/kg peroral dose; assay type: functional; conditions: route oral
Homo sapiens [2] = species: Homo sapiens; assay: Inhibition of [14C]arachidonic acid induced platelet aggregation at 50 uM (Control 6-keto-PGF1-alpha = 1.45+/-0.6); assay type: functional
Homo sapiens [3] = species: Homo sapiens; assay: Inhibition of [14C]arachidonic acid induced platelet aggregation at 50 uM (Control TXB2 = 14.9+/-2.5); assay type: functional
Mus musculus [4] = assay: Protection against mortality in pulmonary thromboembolism model in mice at 3 mg/kg; assay type: functional
Mus musculus [5] = assay: Protection against mortality in pulmonary thromboembolism model in mice at 9 mg/kg; assay type: functional
Mus musculus [6] = assay: Protection against mortality in pulmonary thromboembolism model in mice at 30 mg/kg; assay type: functional
Mus musculus [7] = assay: Time course of protection against mortality in a pulmonary thromboembolism model in mice after -3 hr at 10 mg/kg; assay type: functional
Mus musculus [8] = assay: Time course of protection against mortality in a pulmonary thromboembolism model in mice after -5 hr at 10 mg/kg; assay type: functional
Mus musculus [9] = assay: Time course of protection against mortality in a pulmonary thromboembolism model in mice after -7hr at 10 mg/kg; assay type: functional
Rattus norvegicus [10] = assay: Antihypertensive activity in conscious spontaneously hypertensive rat (SHR), percent change in heart rate (beats/min) after 8 hr at 1 mg/kg peroral dose; assay type: functional; conditions: route oral
Rattus norvegicus [11] = assay: Antihypertensive activity in conscious spontaneously hypertensive rat (SHR), percent change in heart rate (beats/min) after 2 hr at 3 mg/kg peroral dose; assay type: functional; conditions: route oral
Rattus norvegicus [12] = assay: Antihypertensive activity in conscious spontaneously hypertensive rat (SHR), percent change in heart rate (beats/min) after 4 hr at 3 mg/kg peroral dose; assay type: functional; conditions: route oral
Rattus norvegicus [13] = assay: Antihypertensive activity in conscious spontaneously hypertensive rat (SHR), percent change in heart rate (beats/min) after 2 hr; assay type: functional
Rattus norvegicus [14] = assay: Antihypertensive activity in conscious spontaneously hypertensive rat (SHR), percent change in heart rate (beats/min) after 12 hr at 0.3 mg/kg peroral dose; assay type: functional; conditions: route oral
Rattus norvegicus [15] = assay: Antihypertensive activity in conscious spontaneously hypertensive rat (SHR), percent change in heart rate (beats/min) after 1 hr at 10 mg/kg peroral dose; assay type: functional; conditions: route oral
Rattus norvegicus [16] = assay: Antihypertensive activity in conscious spontaneously hypertensive rat (SHR), percent change in heart rate (beats/min) after 4 hr at 10 mg/kg peroral dose; assay type: functional; conditions: route oral
Rattus norvegicus [17] = assay: Antihypertensive activity in conscious spontaneously hypertensive rat (SHR), percent change in heart rate (beats/min) after 8 hr at 10 mg/kg peroral dose; assay type: functional; conditions: route oral
Rattus norvegicus [18] = assay: Antihypertensive activity in conscious spontaneously hypertensive rat (SHR), percent change in heart rate (beats/min) after 1 hr at 1 mg/kg peroral dose; assay type: functional; conditions: route oral
Rattus norvegicus [19] = assay: Antihypertensive activity in conscious spontaneously hypertensive rat (SHR), percent change in heart rate (beats/min) after 4 hr at 1 mg/kg peroral dose; assay type: functional; conditions: route oral
Rattus norvegicus [20] = assay: Antihypertensive activity in conscious spontaneously hypertensive rat (SHR), percent change in Systolic blood pressure (SBP) at 0.3 mg/kg peroral dose after 1 hr; assay type: functional; conditions: route oral
Rattus norvegicus [21] = assay: Antihypertensive activity in conscious spontaneously hypertensive rat (SHR), percent change in Systolic blood pressure (SBP) at 0.3 mg/kg peroral dose after 8 hr; assay type: functional; conditions: route oral
Rattus norvegicus [22] = assay: Antihypertensive activity in conscious spontaneously hypertensive rat (SHR), percent change in Systolic blood pressure (SBP) at 10 mg/kg peroral dose after 1 hr; assay type: functional; conditions: route oral
Rattus norvegicus [23] = assay: Antihypertensive activity in conscious spontaneously hypertensive rat (SHR), percent change in Systolic blood pressure (SBP) at 10 mg/kg peroral dose; assay type: functional; conditions: route oral
Rattus norvegicus [24] = assay: Antihypertensive activity in conscious spontaneously hypertensive rat (SHR), percent change in Systolic blood pressure (SBP) at 1 mg/kg peroral dose after 1 hr; assay type: functional; conditions: route oral
Rattus norvegicus [25] = assay: Antihypertensive activity in conscious spontaneously hypertensive rat (SHR), percent change in Systolic blood pressure (SBP) at 3 mg/kg peroral dose after 8 hr; assay type: functional; conditions: route oral
Rattus norvegicus [26] = assay: Antihypertensive activity in conscious spontaneously hypertensive rat (SHR), percent change in Systolic blood pressure (SBP) at 1 mg/kg peroral dose after 12 hr; assay type: functional; conditions: route oral
Rattus norvegicus [27] = assay: Antihypertensive activity in conscious spontaneously hypertensive rat (SHR), percent change in Systolic blood pressure (SBP) at 3 mg/kg peroral dose after 12 hr; assay type: functional; conditions: route oral
Rattus norvegicus [28] = assay: Ex vivo inhibition of blood platelet aggregation in rats at 50 mg/kg peroral dose 8 hr; assay type: functional; conditions: route oral
Rattus norvegicus [29] = assay: Ex vivo inhibition of blood platelet aggregation in rats at 50 mg/kg peroral dose after 3 hr; assay type: functional; conditions: route oral
Rattus norvegicus [30] = assay: Antihypertensive activity in conscious spontaneously hypertensive rat (SHR), percent change in Systolic blood pressure (SBP) at 0.3 mg/kg peroral dose after 4 hr; assay type: functional; conditions: route oral
Rattus norvegicus [31] = assay: Antihypertensive activity in conscious spontaneously hypertensive rat (SHR), percent change in Systolic blood pressure (SBP) at 0.3 mg/kg peroral dose after 12 hr; assay type: functional; conditions: route oral
[32] = biological target: T1, Thromboxane-A synthase (Homo sapiens) (UniProt P24557); assay: Effect of TXA2 synthase inhibitor (compound) on serum TXB2 level in rats at 50 mg/kg po, after 2 hr; assay type: functional, organism-based; design: dose 50 mg/kg; conditions: Rattus norvegicus, target entry is the homologue from another species
T1 sequence (whole entry): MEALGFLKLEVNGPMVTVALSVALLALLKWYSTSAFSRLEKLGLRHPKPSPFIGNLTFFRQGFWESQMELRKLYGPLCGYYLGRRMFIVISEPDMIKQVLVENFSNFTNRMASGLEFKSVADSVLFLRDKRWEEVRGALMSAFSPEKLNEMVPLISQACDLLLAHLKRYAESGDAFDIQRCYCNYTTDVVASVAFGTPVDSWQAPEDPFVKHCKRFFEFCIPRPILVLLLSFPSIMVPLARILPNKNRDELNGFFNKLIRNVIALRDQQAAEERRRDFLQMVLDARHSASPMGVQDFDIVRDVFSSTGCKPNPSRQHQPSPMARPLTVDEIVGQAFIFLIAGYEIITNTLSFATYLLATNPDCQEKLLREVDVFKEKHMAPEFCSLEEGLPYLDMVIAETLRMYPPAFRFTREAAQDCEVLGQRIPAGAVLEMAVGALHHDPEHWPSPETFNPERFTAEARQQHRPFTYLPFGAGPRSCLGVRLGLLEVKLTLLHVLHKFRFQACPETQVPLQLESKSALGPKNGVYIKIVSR

Thromboxane-A synthase = biological target: T2, Thromboxane-A synthase (Homo sapiens, UniProt P24557); assay: Compound was evaluated for the inhibition of human blood platelet thromboxane A2 synthase
T2 sequence (P24557 whole entry): T1 sequence (whole entry)

Rattus norvegicus [33] = assay: Antihypertensive activity in conscious spontaneously hypertensive rat (SHR), percent change in Systolic blood pressure (SBP) at 3 mg/kg peroral dose after 2 hr; assay type: functional; conditions: route oral
Homo sapiens [34] = species: Homo sapiens; assay: Ratio of IC50(w/oPAM)/IC50(w/PAM); assay type: functional
Mus musculus [35] = assay: Protection against mortality in pulmonary thromboembolism model in mice at 12 mg/kg; assay type: functional
Homo sapiens [36] = species: Homo sapiens; assay: Inhibition of [14C]arachidonic acid induced TXB2 formation at 5 uM (Control TXB2 = 14.9+/-2.5)

What does the source list for `O=C1CCc2cc(/C=C/n3ccnc3)ccc2N1`?
Change in heart rate (Rattus norvegicus [1]): -8%; 6-keto-PGF1α level at 50 µM (Homo sapiens [2]): 11.5%; inhibition at 50 µM (Homo sapiens [3]): 8%; survival at 3 mg/kg (Mus musculus [4]): 20%; survival at 9 mg/kg (Mus musculus [5]): 50%; survival at 30 mg/kg (Mus musculus [6]): 20%; survival at 10 mg/kg (Mus musculus [7]): 20%; survival at 10 mg/kg (Mus musculus [8]): 60%; survival at 10 mg/kg (Mus musculus [9]): 0%; Change in heart rate (Rattus norvegicus [10]): -5%; Change in heart rate (Rattus norvegicus [11]): 10%; Change in heart rate (Rattus norvegicus [12]): 20%; Change in heart rate (Rattus norvegicus [13]): 11%; Change in heart rate (Rattus norvegicus [14]): -8%; Change in heart rate (Rattus norvegicus [15]): 22%; Change in heart rate (Rattus norvegicus [16]): 25%; Change in heart rate (Rattus norvegicus [17]): 16%; Change in heart rate (Rattus norvegicus [18]): 17%; Change in heart rate (Rattus norvegicus [19]): 7%; Change in systolic BP (Rattus norvegicus [20]): -5%; Change in systolic BP (Rattus norvegicus [21]): -54%; Change in systolic BP (Rattus norvegicus [22]): -56%; Change in systolic BP (Rattus norvegicus [23]): -35%; Change in systolic BP (Rattus norvegicus [24]): -19%; Change in systolic BP (Rattus norvegicus [25]): -18%; Change in systolic BP (Rattus norvegicus [26]): -3%; Change in systolic BP (Rattus norvegicus [27]): -3%; inhibition in vivo at 50 mg/kg (Rattus norvegicus [28]): 96.5%; inhibition in vivo at 50 mg/kg (Rattus norvegicus [29]): 94.7%; Change in systolic BP (Rattus norvegicus [30]): -1%; Change in systolic BP (Rattus norvegicus [31]): -1%; inhibition [32]: 97%; IC50 (Thromboxane-A synthase): 1.2 µM; Change in systolic BP (Rattus norvegicus [33]): -21%; Ratio (Homo sapiens [34]): 4.7; survival at 12 mg/kg (Mus musculus [35]): 70%; TXB2 level at 5 µM (Homo sapiens [36]): 12.3%
